Data on 90 substances can be found in US6458765B1, “Dolastatin 15 derivatives” (BASF Aktiengesellschaft, priority 1997, dated 2002).

pIC50: −log10 of the molar value.

Series [1] deals with P388 lymphocytic leukemia (PS system) cell line. Conditions: National Cancer Institute's P388 (PS system); cited from earlier work.
For series [2] the following is noted: synthetic Dolastatin 15; cited from earlier work.
Series [3] has as its system HT-29 colon carcinoma cells. In kind it is cell-based.

For the substance Dolastatin 15, the “inhibition of growth of P388 cell line” value in series [1] is “markedly inhibits the growth”. Besides, in series [2], the “solubility in aqueous systems” value is “poor solubility”.

Consider “Me2Aib-Val-MeVal-Pro-Pro-NHBn [Compound 3]”, for which the pIC50 in series [3] was 7.46. Xad Val Xaa Pro Xap [Compound 13] had a pIC50 in series [3] of 9.00.

The substance Xae Val Xaa Pro Xab [Compound 8] had a pIC50 in series [3] of 6.29. Same read-out and setting: as for Xam Val Xaa Pro Xab [Compound 10], the figure is 6.89; as for Xao Val Xaa Pro Xab [Compound 12], 6.43.

For Xaq Val Xaa Pro Xab [Compound 14], the pIC50 in series [3] was 8.82.

Xar Val Xaa Pro Xab [Compound 15]: in series [3], the pIC50 is 6.77. Take Xas Val Xaa Pro Xab [Compound 16]: in series [3], the negative-log IC50 (pIC50) was 9.14.

For Xat Val Xaa Pro Xab [Compound 17], the pIC50 in series [3] was 7.20. Take Xat Val Xaa Pro Xab [Compound 18]: in series [3], the pIC50 is 8.06. For the substance Xau Val Xaa Pro Xab [Compound 76], the pIC50 in series [3] is 9.64.

Xau Val Xaa Pro Xab [Compound 77]: the pIC50 in series [3] is 8.14. Still for that read-out and setting: then Xau Val Xaa Pro Xbp [Compound 73], with 8.85. In series [3], Xau Val Xaa Pro Xbp [Compound 96] showed a negative-log IC50 (pIC50) of 8.77. The same measure, in the same setting: as for Xau Val Xaa Pro Xbp [Compound 97], the figure is 7.49. On the same count and under the same terms, then Xau Val Xaa Pro Xbx [Compound 74], with 7.29; and Xau Val Xaa Pro Xcb [Compound 78], with 8.37. For Xau Val Xaa Pro Xcc [Compound 90], in series [3], the pIC50 is 9.03. Same read-out and setting: as for Xau Val Xaa Pro Xcd [Compound 91], the figure is 9.08; as for Xaw Val Xaa Pro Xbn [Compound 45], 7.25; as for Xaw Val Xaa Pro Xbp [Compound 48], 7.60.

Regarding Xaw Val Xaa Pro Xbq [Compound 51], the pIC50 in series [3] was 7.34.

Turning to Xaw Val Xaa Pro Xbr [Compound 52], in series [3], the pIC50 was 6.47. On to Xaw Val Xaa Pro Xbx [Compound 66], for which the pIC50 in series [3] was 6.47. Still for that read-out and setting: then Xax Val Xaa Pro Xab [Compound 22], with 6.19.

In the case of Xay Val Xaa Pro Xab [Compound 24], the pIC50 in series [3] is 7.55. Regarding Xba Val Xaa Pro Xab [Compound 27], the pIC50 in series [3] is 7.43. In turn, Xba Val Xaa Pro Xbp [Compound 100] had a negative-log IC50 (pIC50) in series [3] of 5.64. In series [3], Xba Val Xaa Pro Xbp [Compound 101] showed a pIC50 of 5.68. Consider Xba Val Xaa Pro Xcb [Compound 92], for which the pIC50 in series [3] was 5.82. Regarding Xba Val Xaa Pro Xcb [Compound 93], the pIC50 in series [3] is 5.74. This pIC50 and that of the substance before are within 0.2 log units of each other. With Xba Val Xaa Pro Xcc [Compound 102], the pIC50 in series [3] was 6.92. Against the preceding substance, the pIC50 is 1.18 log units higher.

In the case of Xba Val Xaa Pro Xcc [Compound 103], the pIC50 in series [3] was 6.96. On the same count and under the same terms, as for Xba Val Xaa Pro Xcd [Compound 104], the figure is 5.46; as for Xbb Val Xaa Pro Xab [Compound 28], 7.31; as for Xbc Val Xaa Pro Xab [Compound 29], 7.44. Xbd Val Xaa Pro Xab [Compound 30] showed a negative-log IC50 (pIC50) in series [3] of 8.21. Still for that read-out and setting: as for Xbd Val Xaa Pro Xab [Compound 31], the figure is 6.70; as for Xbe Val Xaa Pro Xab [Compound 32], 6.07; as for Xbe Val Xaa Pro Xab [Compound 33], 5.92.

Take Xbf Val Xaa Pro Xab [Compound 34]: in series [3], the pIC50 is 8.30. Against the preceding substance, the pIC50 is 2.38 log units higher. The same measure, in the same setting: as for Xbf Val Xaa Pro Xab [Compound 43], the figure is 7.23. On the same count and under the same terms, as for Xbg Val Xaa Pro Xab [Compound 35], the figure is 6.85; as for Xbh Val Xaa Pro Xab [Compound 36], 8.21. In turn, Xbh Val Xaa Pro Xab [Compound 37] gave a pIC50 in series [3] of 6.72. Take Xbi Val Xaa Pro Xab [Compound 38]: the pIC50 in series [3] is 6.14. Against the preceding substance, the pIC50 is 0.58 log units lower.

Turning to Xbi Val Xaa Pro Xab [Compound 39], the negative logarithm of the IC50 (pIC50) in series [3] is 7.60. Regarding Xbi Val Xaa Pro Xbx [Compound 75], the pIC50 in series [3] was 6.07. Still for that read-out and setting: as for Xbi Val Xaa Pro Xcb [Compound 79], the figure is 5.77. Xbi Val Xaa Pro Xcb [Compound 80]: the pIC50 in series [3] is 7.17.

As for Xbi Val Xaa Pro Xcc [Compound 81], the pIC50 in series [3] is 3.89.

In series [3], Xbi Val Xaa Pro Xcc [Compound 82] had a negative logarithm of the IC50 (pIC50) of 7.96. The same measure, in the same setting: then Xbi Val Xaa Pro Xcd [Compound 83], with 6.89. On the same count and under the same terms, then Xbi Val Xaa Pro Xcd [Compound 98], with 8.22; and Xbk Val Xaa Pro Xab [Compound 40], with 6.25; and Xbk Val Xaa Pro Xab [Compound 41], with 5.14. Turning to Xbk Val Xaa Pro Xcc [Compound 84], the pIC50 in series [3] was 5.92. Same read-out and setting: as for Xbk Val Xaa Pro Xcc [Compound 85], the figure is 5.02.

Consider Xbk Val Xaa Pro Xcd [Compound 99], for which the pIC50 in series [3] is 5.42.

Xbl Val Xaa Pro Xab [Compound 42] gave a pIC50 in series [3] of 6.47. Same read-out and setting: as for Xbl Val Xaa Pro Xab [Compound 54], the figure is 8.38; as for Xbl Val Xaa Pro Xab [Compound 55], 7.25.

As for Xbm Val Xaa Pro Xab [Compound 44], the pIC50 in series [3] was 7.32. In series [3], Xbo Val Xaa Pro Xbn [Compound 46] showed a negative-log IC50 (pIC50) of 6.14. Regarding Xbo Val Xaa Pro Xbn [Compound 47], the negative-log IC50 (pIC50) in series [3] is 7.64. Substance Xbo Val Xaa Pro Xbp [Compound 49] had a pIC50 in series [3] of 7.06. On the same count and under the same terms, then Xbo Val Xaa Pro Xbp [Compound 50], with 7.05; and Xbo Val Xaa Pro Xbp [Compound 94], with 5.52; and Xbo Val Xaa Pro Xbp [Compound 95], with 7.96.

For the substance Xbo Val Xaa Pro Xbq [Compound 64], the pIC50 in series [3] was 5.77.

Take Xbo Val Xaa Pro Xbq [Compound 65]: in series [3], the negative-log IC50 (pIC50) was 7.01. Substance Xbo Val Xaa Pro Xbr [Compound 62] had a pIC50 in series [3] of 7.00. This pIC50 and that of the substance before are within 0.2 log units of each other.

As for Xbo Val Xaa Pro Xbr [Compound 63], the pIC50 in series [3] is 7.25.

On to Xbo Val Xaa Pro Xbx [Compound 72], for which, in series [3], the pIC50 was 6.92. The substance Xbs Val Xaa Pro Xbt [Compound 53] gave a pIC50 in series [3] of 8.30. Against the preceding substance, the pIC50 is 1.38 log units higher. Same read-out and setting: as for Xbs Val Xaa Pro Xbt [Compound 60], the figure is 8.74; as for Xbv Val Xaa Pro Xab [Compound 57], 7.60. Still for that read-out and setting: as for Xbw Val Xaa Pro Xab [Compound 58], the figure is 7.20. For Xbw Val Xaa Pro Xab [Compound 59], the negative logarithm of the IC50 (pIC50) in series [3] was 6.72. This pIC50 is 0.48 log units lower than that of the substance before. Same read-out and setting: as for Xby Val Xaa Pro Xab [Compound 67], the figure is 6.47; as for Xbz Val Xaa Pro Xab [Compound 68], 6.38.

Consider Xca Val Xaa Pro Xab [Compound 70], for which the negative logarithm of the IC50 (pIC50) in series [3] was 5.15. As for Xce Val Xaa Pro Xab [Compound 105], the pIC50 in series [3] was 7.74. On the same count and under the same terms, as for Xcf Val Xaa Pro Xab [Compound 106], the figure is 7.01; as for Xcg Val Xaa Pro Xab [Compound 108], 5.15. Same read-out and setting: then “[N,N-Dimethyl-2-ethyl-2-phenylglycyl]-Val-MeVal-Pro-Pro-NHBn×HCl [Compound 4]”, with 8.92; and “[N-Methyl-D-Pro]-Val-MeVal-Pro-Pro-NHBn [Compound 5]”, with 8.30. Consider “[N-Methyl-D-piperidine-2-carbonyl]-Val-MeVal-Pro-Pro-NHBn [Compound 2]”, for which the pIC50 in series [3] was 9.17. “[N-Methyl-L-piperidine-2-carbonyl]-Val-MeVal-Pro-Pro-NHBn [Compound 1]” showed a pIC50 in series [3] of 7.33. This pIC50 is 1.84 log units lower than that of the substance before.
